Assay results taken from patent publication US20110098325A1, “PYRIDINE BENZAMIDES AND PYRAZINE BENZAMIDES USED AS PKD INHIBITORS” (CANCER RESEARCH TECHNOLOGY LIMITED, priority 2006, published 2011).

Target: T1, human full length PKD2 (Homo sapiens, UniProt Q9BZL6)
T1 construct: human full length PKD2 at ˜100 μg/mL was purchased from Upstate Ltd; purchased Upstate Ltd 14-506
T1 sequence (Q9BZL6 1-878): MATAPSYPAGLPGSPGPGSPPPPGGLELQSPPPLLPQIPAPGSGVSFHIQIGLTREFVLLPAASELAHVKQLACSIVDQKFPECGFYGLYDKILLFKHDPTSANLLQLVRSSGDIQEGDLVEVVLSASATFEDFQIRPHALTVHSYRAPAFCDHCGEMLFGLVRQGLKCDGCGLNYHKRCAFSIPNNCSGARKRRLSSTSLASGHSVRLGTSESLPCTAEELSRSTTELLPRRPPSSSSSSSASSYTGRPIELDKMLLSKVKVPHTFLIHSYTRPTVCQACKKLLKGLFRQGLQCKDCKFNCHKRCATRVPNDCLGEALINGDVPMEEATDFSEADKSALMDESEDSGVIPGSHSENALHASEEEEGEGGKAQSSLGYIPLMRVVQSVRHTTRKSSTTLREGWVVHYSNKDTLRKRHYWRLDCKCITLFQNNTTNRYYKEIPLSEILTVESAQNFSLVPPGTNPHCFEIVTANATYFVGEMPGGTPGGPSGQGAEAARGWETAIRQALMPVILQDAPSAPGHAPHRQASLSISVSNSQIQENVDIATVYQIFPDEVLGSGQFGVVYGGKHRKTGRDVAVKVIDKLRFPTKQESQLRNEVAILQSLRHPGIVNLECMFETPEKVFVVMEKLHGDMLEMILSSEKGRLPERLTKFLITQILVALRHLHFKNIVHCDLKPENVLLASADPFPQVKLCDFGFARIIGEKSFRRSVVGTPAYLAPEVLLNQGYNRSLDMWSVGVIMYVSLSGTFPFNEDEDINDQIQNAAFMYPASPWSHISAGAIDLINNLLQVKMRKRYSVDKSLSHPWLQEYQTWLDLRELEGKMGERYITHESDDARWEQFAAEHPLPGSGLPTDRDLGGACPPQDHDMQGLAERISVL
Test: PKD2 (Human Full Length) Enzyme Activity Assay (IMAP fluorescence polarisation)
Format: biochemical
Details: stands directly after the PKD2 data (b743-b745); read-out: IC50, printed as PKD1 (Human Full Length) Enzyme Activity Assay
Protocol: Kinase Assay Reaction Buffer: This consisted of 0.22 μM filtered 25 mM HEPES and 10 mM MgCl2 pH 7.5.
Kinase: human full length PKD2 at ˜100 μg/mL was purchased from Upstate Ltd (Product code 14-506), and obtained from aliquots stored at −70° C. It was prepared with a final concentration of 0.1 μg/mL by diluting 1:300 in Reaction Buffer (30 μL per 9 mL-5 mL per plate with an additional 4 mL dead volume) and vortexing prior to use. It is necessary to check this concentration regularly in case of enzyme degradation.
Substrate: Fluorescein labelled glycogen synthase-derived peptide (FI)-KKLNRTLSVA (also known as MAPKAP K2 substrate) was obtained from Molecular Devices (Product code R7127). […]
5 μL Kinase/Substrate in Reaction Buffer was added to ‘test’ and all ‘control’ wells of a Corning black low binding 384 well (90 μL volume) microplate to give 0.1 μg/mL and 2 μM reaction concentration respectively. […] The fluorescence polarisation of the peptide substrate was measured using an analyst (Molecular devices) microplate reader with a single read at Ex485 Em535 (Analyst settings: Z Height 5 mm, G Factor 0.95, Reads/well 1, Integration 100000 μs, Gain Sensitivity 2).
Percentage inhibition was calculated based on activity of the test sample minus the average values in the blank wells relative to the average values measured in control wells minus the average values in the blank wells. […]

| IC50 [nM] | SMILES |
| --- | --- |
| 32 | COc1cc(-c2cc(-c3cccc(C(=O)NCCN(C)C)c3)cnc2N)ccc1O [Y-059, 3-[6-Amino-5-(4-hydroxy-3-methoxy-phenyl)-pyridin-3-yl]-N-(2-dimethylamino-ethyl)-benzamide] |
| 420 | COc1cc(-c2cncc(-c3cccc(C(=O)NCCN(C)C)c3)n2)ccc1O [X-007, N-(2-Dimethylamino-ethyl)-3-[6-(4-hydroxy-3-methoxy-phenyl)-pyrazin-2-yl]-benzamide] |
